Test system: mucin
Assay: Bulk diffusion of FITC-peptides and fluorescein salt in mucin
Assay type: in vitro ADME
Details: DPBS/Dmucin

O=C([O-])c1ccccc1-c1c2ccc(=O)cc-2oc2cc([O-])ccc12.[Na+].[Na+] [Fluorescein salt, fluorescein sodium salt]
fold decreased diffusion in mucin compared to saline: 3 fold
